Data published in patent US7732485B2, “Treatment of cancer” (The University of Manchester, priority 2003, dated 2010).

Columns and labels:
[1] = tested on: L1210 cell line; experiment: Growth inhibition assay (modified MTT); type: cell-based, murine; details: five-day MTT
Experimental: (§1) The sensitivities of the cell lines to cisplatinum, carboplatinum, and compounds A-F were determined using a growth inhibition assay which was a modified version of the MTT method (modified version of MTT method described in Appendix B).
(§2) The following is a brief description of the eleven different cell lines used in the growth inhibition assay: • The A2780 cell line (1 in FIGS. 1-9) is a human ovarian cell line which is sensitive to cisplatinum and carboplatinum. […] The cor123/cpr (7) cell line is a modified version of the cor123 cell line which has been modified to be resistant to cisplatinum and carboplatinum. • The ccu24 (8) cell line is an epithelial ovarian cancer cell line, developed at the Christie Hospital from a tumour biopsy, and the ccu24/cpr (9) cell line is a modified version of this cell line which is cisplatinum and carboplatinum resistant. • L1210 (10) is a murine leukemia cell line and L1210/M1140 (11) is its platinum drug resistant subline.
(§3) The cell toxicity studies were performed using a modification of the method MTT.^7 The principle of the assay is to assess the growth inhibitory effect of a drug at various doses over a five-day time course. This assay was performed in 96-well microtitre plates. Cells were seeded at densities of 400-1,000 cells per well, depending on the doubling time of the cell line. All cell dilutions were performed in growth medium containing 10% FCS (foetal calf serum).
(§4) Compounds under investigation were dissolved in DMSO (dimethylsulphoxide). Serial dilutions of compound were made into the cell suspension, ensuring that the proportion of DMSO remained below 0.5%. 200 μl of cells and drug mix was added to the 96-well plates in triplicate. The plates were incubated for five days at 5% CO2 and 37° C. After this time, the plates were removed from the incubator and 50 μl of a 3 mg/ml solution of MTT [3-(4,5-dimethyl-thiazol-2-yl)-2,5-diphenyl tetrazolium bromide] was added to each well and incubated in the same conditions for another 3 hours. The medium from each well was aspirated and the formazan crystals were solubilised in 200 μl of DMSO. The plates were read using a Multiskan platereader at 540 nm and 690 nm. Growth inhibition curves were constructed using mean and standard deviation of the triplicate absorbance values and from these curves the IC50 values were calculated.

[2] = tested on: L1210/M1140 cell line; experiment: Growth inhibition assay (modified MTT); type: cell-based, murine; details: five-day MTT
Experimental: as §1, §2, §3, §4

[3] = tested on: L1210; experiment: Comet assay, DNA crosslinking; type: cell-based, murine; details: ratio >1 = more cross-linking in parental than in platinum-resistant line
Experimental: (§5) Preliminary studies have been carried out to investigate the mechanism underlying this increased sensitivity. These studies were carried out using the Comet assay (described in Appendix C), which measures damage to DNA. The results are shown in FIGS. 1 (cisplatinum), 2 (carboplatinum), 3 to 8 (compounds A-F) and 9 (phenylgoldtriphenylphospine, PAuP).
(§6) Table 3 illustrates the results of the following calculation using the DNA cross-linking results obtained in the Comet assays:
(§7) DNA damage was measured by the single cell gel electrophoresis (SCGE) assay or “Comet assay”, originally developed by Ostling and Johnson^8. This is a method for determining the extent of DNA damage and repair capacity within individual cells.^9-11 It has previously been shown that this technique can be used to investigate the mechanism of action of different DNA damaging agents.^12
(§8) Cells were trypsinised, suspended in 0.5 ml of ice cold fresh medium and transferred into plastic 24-well dishes prior to embedding in agarose. For the cross-linking studies treated and control samples were chilled on ice (to prevent any repair of DNA damage) and irradiated to a dose of 20 Gy in a Caesium-137 source (0.4 Gy/min). Control, (unirradiated, non-drug treated cells) were maintained on ice in the same manner as treated samples.
(§9) Glass microscope slides, frosted at one end, were pre-coated with 1% normal agarose in distilled water. These slides were allowed to air dry overnight prior to use. A 1% low melting point agarose (LMP) mixture in PBS was melted and held at 45° C. 1 ml of LMP was then added to 0.5 ml of cell suspension on ice and the resultant mixture was pipetted onto a pre-coated glass microscope slide and allowed to set for 1-2 minutes before being transferred to an ice tray. The slides were immersed in ice cold lysis solution (100 mM EDTA, 10 mM Tris-HCl, 1% Triton ×100, 1% DMSO, 2.5M NaCl) for 1 hr, and washed three times by immersion in fresh double distilled water for 15 minutes.
(§10) Slides were then placed onto a flat bed electrophoresis tank and covered (5-6 mm) with alkali unwinding solution (50 mM NaOH, 1 mM EDTA buffered to pH 12.5) and left under subdued lighting for 45 minutes to allow the DNA to unwind before being subjected to electrophoresis at 0.6V/cm for 25 minutes. Each slide was rinsed with 2×1 ml of 0.4M Tris-HCl, pH 8.0 and allowed to dry in air. The dried slides were then rehydrated for 20 minutes with double distilled water, 2×1 ml of propidium iodide solution (2.5 μg/ml) was added and staining was allowed to proceed for 15 minutes. Slides were then immersed in 1 litre of double distilled water for 1 hour to reduce excess background staining. The slides were cover slipped and then examined at 250× magnification under an epifluorescent microscope (Zeiss-Jenamed) using green light from a 50 watt mercury source with a 580 nm reflector and a 590 nm barrier filter set. Images were captured using an attached Sony HAD-1 interline CCD camera and Komet software analysis package (Kinetic Imaging). Twenty-five images from each of two duplicate slides were captured and analysed and the individual “comet moments” as defined by Olive et al^13, were calculated. The total fluorescence of the image represents the amount of DNA present and the length of the image, measured in pixels, represents the length of migration of the DNA. The head and tail areas of the image were identified and the intensity of each was determined. The tail moment is calculated by multiplying the fraction of DNA present in the tail by half the length of the tail.

[4] = tested on: ccu24/cpr cell line; experiment: Growth inhibition assay (modified MTT); type: cell-based, human; details: five-day MTT
Experimental: as §1, §2, §3, §4

[5] = tested on: ccu24 cell line; experiment: Growth inhibition assay (modified MTT); type: cell-based, human; details: five-day MTT
Experimental: as §1, §2, §3, §4

[6] = tested on: A2780carb cell line; experiment: Growth inhibition assay (modified MTT); type: cell-based, human; details: for IC50: A2780carb, five-day MTT
Experimental: as §1, §2, §3, §4

[7] = tested on: A2780-S cell line; experiment: Growth inhibition assay (modified MTT); type: cell-based, human; details: five-day MTT
Experimental: as §1, §2, §3, §4

[8] = tested on: cor123 cell line; experiment: Growth inhibition assay (modified MTT); type: cell-based, human; details: five-day MTT
Experimental: as §1, §2, §3, §4

[9] = tested on: cor123/cpr cell line; experiment: Growth inhibition assay (modified MTT); type: cell-based, human; details: five-day MTT
Experimental: as §1, §2, §3, §4

[10] = tested on: mcp1 cell line; experiment: Growth inhibition assay (modified MTT); type: cell-based, human; details: five-day MTT
Experimental: as §1, §2, §3, §4

[11] = tested on: mcp8 cell line; experiment: Growth inhibition assay (modified MTT); type: cell-based, human; details: five-day MTT
Experimental: as §1, §2, §3, §4

[12] = tested on: A2780cis cell line; experiment: Growth inhibition assay (modified MTT); type: cell-based, human; details: for IC50: A2780cis, five-day MTT
Experimental: as §1, §2, §3, §4

[13] = tested on: A2780/mcp8; experiment: Comet assay, DNA crosslinking; type: cell-based, human; details: ratio >1 = more cross-linking in parental than in platinum-resistant line
Experimental: as §5, §6, §7, §8, §9, §10

[14] = tested on: cor123; experiment: Comet assay, DNA crosslinking; type: cell-based, human; details: ratio >1 = more cross-linking in parental than in platinum-resistant line
Experimental: as §5, §6, §7, §8, §9, §10

[15] = tested on: A2780carb; experiment: Comet assay, DNA crosslinking; type: cell-based, human; details: ratio >1 = more cross-linking in parental than in platinum-resistant line
Experimental: as §5, §6, §7, §8, §9, §10

[16] = tested on: ccu24; experiment: Comet assay, DNA crosslinking; type: cell-based, human; details: ratio >1 = more cross-linking in parental than in platinum-resistant line
Experimental: as §5, §6, §7, §8, §9, §10

[17] = tested on: A2780mcp1; experiment: Comet assay, DNA crosslinking; type: cell-based, human; details: ratio >1 = more cross-linking in parental than in platinum-resistant line
Experimental: as §5, §6, §7, §8, §9, §10

[18] = tested on: A2780cis; experiment: Comet assay, DNA crosslinking; type: cell-based, human; details: ratio >1 = more cross-linking in parental than in platinum-resistant line
Experimental: as §5, §6, §7, §8, §9, §10

[19] = Table 1, first series of assays
[20] = Table 2, further series of assays
[21] = Table 1, first series of assays, mcp1
[22] = Table 2, further series of assays, A2780/mcp1
[23] = Table 1, first series of assays, mcp8
[24] = Table 2, further series of assays, A2780/mcp8

Compound	IC50 [1, 19] [nM]	IC50 [1, 20] [nM]	IC50 [2, 19] [nM]	IC50 [2, 20] [nM]	DNA crosslinking (Comet) ratio [3]	IC50 [4, 19] [nM]	IC50 [4, 20] [nM]	IC50 [5, 19] [nM]	IC50 [5, 20] [nM]	IC50 [6, 19] [nM]	IC50 [6, 20] [nM]	IC50 [7, 19] [nM]	IC50 [7, 20] [nM]	IC50 [8, 19] [nM]	DNA crosslinking (Comet) ratio [13]	DNA crosslinking (Comet) ratio [14]	DNA crosslinking (Comet) ratio [15]	DNA crosslinking (Comet) ratio [16]	DNA crosslinking (Comet) ratio [17]	DNA crosslinking (Comet) ratio [18]	other results
c1ccc([PH]([Au][c]2cc[c]([Au][PH](c3ccccc3)(c3ccccc3)c3ccccc3)cc2)(c2ccccc2)c2ccccc2)cc1 [A, 1,4-bis-(triphenylphospinogold(I))benzene]	38.3	41.6	6.4	9.2	0.69	3.6	6.4	25.3	28.3	0.6	0.9	13.4	16.5	19.3	0.60	0.56	0.53	0.40	0.59	0.50	sensitivity of A2780carb relative to parental A2780-S line ([6]; from IC50 0.6 nM vs 13.4 nM): over twenty-times more sensitive; IC50 [8, 20]: 22.2 nM; IC50 [9, 19]: 1.5 nM; IC50 [9, 20]: 4.5 nM; IC50 [10, 21]: 0.5 nM; IC50 [10, 22]: 3.5 nM; IC50 [11, 23]: 0.6 nM; IC50 [11, 24]: 4.6 nM; IC50 [12, 19]: 0.2 nM; IC50 [12, 20]: 0.5 nM; sensitivity of A2780cis relative to parental A2780-S line ([12]; from IC50 0.2 nM vs 13.4 nM): over sixty-times more sensitive
[Au][c]1ccc[c]([Au])c1.c1ccc(P(c2ccccc2)c2ccccc2)cc1.c1ccc(P(c2ccccc2)c2ccccc2)cc1 [B]	26.6	29.6	4.1	7.2	0.47	2.1	5.1	18.7	21.8	0.4	0.7	9.8	12.1	12.6	0.39	0.38	0.37	0.39	0.40	0.36	IC50 [8, 20]: 15.8 nM; IC50 [9, 19]: 1.2 nM; IC50 [9, 20]: 4.3 nM; IC50 [10, 21]: 0.4 nM; IC50 [10, 22]: 3.5 nM; IC50 [11, 23]: 0.4 nM; IC50 [11, 24]: 5.4 nM; IC50 [12, 19]: 0.2 nM; IC50 [12, 20]: 0.6 nM
c1ccc([PH]([Au][c]2cccc[c]2[Au][PH](c2ccccc2)(c2ccccc2)c2ccccc2)(c2ccccc2)c2ccccc2)cc1 [Compound C]	42.7	45.8	5.2	8.4	0.71	3.3	6.3	20.2	23.2	0.5	0.8	12.8	15.2	14.4	0.41	0.38	0.36	0.37	0.38	0.36	IC50 [8, 20]: 17.6 nM; IC50 [9, 19]: 1.4 nM; IC50 [9, 20]: 4.4 nM; IC50 [10, 21]: 0.5 nM; IC50 [10, 22]: 3.5 nM; IC50 [11, 23]: 0.5 nM; IC50 [11, 24]: 4.6 nM; IC50 [12, 19]: 0.3 nM; IC50 [12, 20]: 0.6 nM
[Au(η2-C6H4CH═NC6H5)Cl2] [Au (III), reference compound]					0.54										0.69	0.83	0.71	0.78	0.72	0.67	
